Laboratory results published in patent US7893263B2, “Structural analogs of corosolic acid having anti-diabetic and anti-inflammatory properties” (Laila Nutraceuticals, priority 2004, dated 2011).

Experiments:
[1] = tested on: Brine shrimp (Artemia salina) nauplii; assay: in vivo; conditions: 24 h at 37° C., 10 nauplii per vial
Method: Brine shrimp lethality: Brine shrimp (Artemia salina) nauplii were hatched using brine shrimp eggs in a conical shaped vessel (1 L), filled with sterile artificial sea water (prepared using sea salt 38 g/L and adjusted to pH 8.5 using 1 N NaOH) under constant aeration for 48 h. After hatching, 10 nauplii were drawn through a pepette and placed in each vial containing 4.5 mL brine solution and added various concentrations of drug solutions and volume was made upto 5 mL using brine solution and maintained at 37° C. for 24 h under the light of incandescent lamps and surviving larvae were counted. Each experiment was conducted along with control (vehicle treated), at various concentrations of the test substance in each set that contains 6 tubes and the average results are reported. The percentage lethality was determined by comparing the mean mortal larvae of test and control tubes. LC50 values were obtained from the plot of concentration (μg) vs. percentage lethality. Podophyllotoxin was used as a positive control.
The corosolic acid analogs of this invention are found to show significant brine shrimp lethality (Table 3; brine shrimp lethality is expressed in LC50 at μM concentration; lower the LC50 value, higher is the activity).

Albino wistar rats = assay: Hypoglycemic activity: inhibition of sucrose-induced raise in serum glucose levels (SGL); assay type: in vivo; set-up: Inhibitory rate (serum glucose level inhibitory rate): unit not given here; conditions: oral dose 1 mg/Kg; for SGL (mean ± SE): 20 mL/kg of 20% sucrose orally after 30 minutes, blood drawn one hour after treatment, groups of six rats; for Inhibitory rate (serum glucose level inhibitory rate): mean increase in serum glucose levels of treated vs control groups
Method: Hypoglycemic activity: Hypoglycemic activity was tested by the inhibition of sucrose-induced raise in serum glucose levels (SGL), by the test substances in Albino wistar rats. The procedure involves fasting the rats for overnight at ad libitum water, numbered weighed and randomly divided into groups of six animals each. Prior to treatment blood samples were drawn from sinus orbital plexus of all animals using heparin coated glass capillaries under mild ether anesthesia. The blood samples were tested for serum glucose levels using enzymatic GOD/POD method. […] SGL=(test OD/Standard OD)×100 and the results were expressed in mg/dL. All the groups were treated orally with corresponding test substances, standard, vehicle (5% gum acacia). After 30 minutes, all animals were given 20 mL/kg of 20% sucrose solution orally using gastric tube. One hour after treatment, blood samples were drawn again under mild ether anesthesia and tested for serum glucose levels in a same procedure as described above for initial serum glucose estimation. The data was subjected to statistical treatment using t-test and inhibitory rate was calculated by comparing mean increase in serum glucose levels of control and treated groups. The corosolic acid analogs of this invention are found to show better hypoglycemic activity (Table 1; hypoglycemic activity is expressed in serum glucose level inhibitory rate values; higher the inhibitory rate value, higher is the activity) than the corosolic acid.

5-Lipoxygenase = 5-Lipoxygenase inhibitory activity, colorimetric method (ferric xylenol orange, linoleic acid); assay type: biochemical
Method: 5-Lipoxygenase activity: The corosolic acid analogs were screened for their 5-Lipoxygenase inhibitory potential using colorimetric method. The assay mixture contained 50 mM phosphate buffer pH 6.3, 5-Lipoxygenase, various concentrations of test substances in dimethyl sulphoxide and linoleic acid in a total volume of 0.5 mL, after 5 min incubation of above reaction mixture, 0.5 mL ferric xylenol orange reagent was added and OD was measured after two minutes at 585 nm using spectrophotometer. Controls were run along with test in a similar manner except using vehicle instead of test substance solution. Percent inhibition was calculated by comparing absorbance of test solution with that of control.
The corosolic acid analogs of this invention are found to show good 5-lipoxygenase activity (Table 2; 5-lipoxygenase activity is expressed in % of inhibition at 100 μM and 250 μM; higher the % inhibitory values, higher is the activity).

| Molecule | LC50 [1] [µM] | SGL (mean ± SE) (Albino wistar rats) [mg/dL] | Inhibitory rate (serum glucose level inhibitory rate) (Albino wistar rats) | % inhibition of 5-Lox activity (5-Lipoxygenase; 100 μM) [%] | % inhibition of 5-Lox activity (5-Lipoxygenase; 250 μM) [%] |
| --- | --- | --- | --- | --- | --- |
| 2-O-Acetylcorosolic acid and 3-O-acetylcorosolic acid [Compound 1] | 9.7 | 109.54 ± 2.80 | 32.75 | 15.47 | 24.05 |
| 3-O-acetyl-11-keto-β-boswellic acid [AKBA, reference compound] | – | – | – | 17.45 | 25.3 |
| CC(=O)O[C@@H]1C[C@]2(C)[C@H]3CC=C4[C@@H]5[C@@H](C)[C@H](C)CC[C@]5(C(=O)O)CC[C@@]4(C)[C@]3(C)CC[C@H]2C(C)(C)[C@H]1OC(C)=O [Compound 2, 2,3-Di-O-acetylcorosolic acid] | 1.8 | – | – | 20.08 | 44.54 |
| CC1CCC2(C(=O)O)CCC3(C)C(=CCC4C5(C)CC(OC(=O)c6cccnc6)C(O)C(C)(C)C5CCC43C)C2C1C (stereo not shown) [Compound 3, 2-O-Nicotinoylcorosolic acid] | 86.6 | 115.86 ± 3.77 | 13.9 | 28.54 | 53.19 |
| CC1CCC2(C(=O)O)CCC3(C)C(=CCC4C5(C)CC(OC(=O)CN)C(O)C(C)(C)C5CCC43C)C2C1C.Cl (stereo not shown) [Compound 4, 2-O-Glycylcorosolic acid hydrochloride] | 3.9 | 119.23 ± 9.58 | 26.8 | 17.04 | 27.83 |
| CC(N)C(=O)OC1CC2(C)C(CCC3(C)C2CC=C2C4C(C)C(C)CCC4(C(=O)O)CCC23C)C(C)(C)C1O.Cl (stereo not shown) [Compound 5, 2-O-Alanylcorosolic acid hydrochloride] | 3.4 | 113.49 ± 4.11 | 22.39 | 29.14 | 67.03 |
| COC(=O)C12CCC(C)C(C)C1C1=CCC3C4(C)CC(OC(=O)C=Cc5cc(OC)c(OC)c(OC)c5)C(O)C(C)(C)C4CCC3(C)C1(C)CC2 (stereo not shown) [Compound 6, Methyl 2-O-(3,4,5-trimethoxycinnamoyl)corosolate] | > 200 | 114.15 ± 6.62 | 21.94 | – | 13.47 |
| CC1CCC2(C(=O)O)CCC3(C)C(=CCC4C5(C)CC6OS(=O)(=O)OC6C(C)(C)C5CCC43C)C2C1C (stereo not drawn) [Compound 7, 2α,3β-Dihydroxyurs-12-en-28-oic acid 2,3-cyclicsulphate] | 15 | – | – | – | 16.90 |
| C[C@H]1[C@H](C)CC[C@]2(C(N)=O)CC[C@]3(C)C(=CC[C@@H]4[C@@]5(C)C[C@@H](O)[C@H](O)C(C)(C)[C@@H]5CC[C@]43C)[C@H]12 [Compound 8, Corosolamide] | 29 | 110.14 ± 3.18 | 18.15 | 26.13 | 51.29 |
| C[C@H]1[C@H](C)CC[C@]2(C(=O)Nc3ccccc3)CC[C@]3(C)C(=CC[C@@H]4[C@@]5(C)C[C@@H](O)[C@H](O)C(C)(C)[C@@H]5CC[C@]43C)[C@H]12 [Compound 9, N-Phenylcorosolamide] | > 100 | 117.97 ± 0.37 | 27.58 | 8.16 | 21.77 |
| CC1CCC2(C(=O)NCCN)CCC3(C)C(=CCC4C5(C)CC(O)C(O)C(C)(C)C5CCC43C)C2C1C (stereo not shown) [Compound 10, N-(2-Aminoethyl)corosolamide] | 97.2 | 113.57 ± 3.80 | 30.28 | 21.74 | 40.87 |
| CC1CCC2(C(=O)N3CCNCC3)CCC3(C)C(=CCC4C5(C)CC(O)C(O)C(C)(C)C5CCC43C)C2C1C (stereo not shown) [Compound 11, N-(Corosolyl)piperazine] | 9.2 | 107.88 ± 4.61 | 19.83 | 35.42 | 64.99 |
| CC1CCC2(C(=O)NCCO)CCC3(C)C(=CCC4C5(C)CC(O)C(O)C(C)(C)C5CCC43C)C2C1C (stereo not shown) [Compound 12, N-(2-Hydroxyethyl)corosolamide] | > 100 | 103.49 ± 7.12 | 36.47 | 17.74 | 32.96 |
| COC(=O)[C@]12CC[C@@H](C)[C@H](C)[C@H]1C1=CC[C@@H]3[C@@]4(C)C[C@@H](O)[C@H](O)C(C)(C)[C@@H]4CC[C@@]3(C)[C@]1(C)CC2 [Compound 13, Methyl corosolate] | 10.2 | 118.94 ± 8.61 | 11.6 | 17.3 | 40.04 |
| COC(=O)[C@]12CC[C@@H](C)[C@H](C)[C@H]1C1=CC(=O)[C@@H]3[C@@]4(C)C[C@@H](O)[C@H](O)C(C)(C)[C@@H]4CC[C@@]3(C)[C@]1(C)CC2 [Compound 15, Methyl 11-ketocorosolate] | 40.9 | 120.79 ± 4.85 | 17.4 | – | 25.09 |
| C[C@H]1[C@H](C)CC[C@]2(C(=O)O)CC[C@]3(C)C(=CC(=O)[C@@H]4[C@@]5(C)C[C@@H](O)[C@H](O)C(C)(C)[C@@H]5CC[C@]43C)[C@H]12 [Compound 17, 11-Ketocorosolic acid] | – | 120.90 ± 9.66 | 25.78 | – | – |
| CC(=O)OC1CC2(C)C(CCC3(C)C2C(=O)C=C2C4C(C)C(C)CCC4(C(=O)O)CCC23C)C(C)(C)C1OC(C)=O (stereo not shown) [Compound 18, Diacetyl-11-ketocorosolic acid] | 87.7 | – | – | – | – |
| C[C@H]1[C@H](C)CC[C@]2(C(=O)O)CC[C@]3(C)C(=CC(=O)[C@@H]4[C@@]5(C)C[C@H]6OS(=O)(=O)O[C@@H]6C(C)(C)[C@@H]5CC[C@]43C)[C@H]12 [Compound 19, 2α,3β-Dihydroxyurs-12-en-11-one-28-oic acid 2,3-cyclicsulphate] | > 100 | 129.16 ± 4.66 | 11.67 | – | 11.81 |
| C[C@H]1[C@H](C)CC[C@]2(C(N)=O)CC[C@]3(C)C(=CC(=O)[C@@H]4[C@@]5(C)C[C@@H](O)[C@H](O)C(C)(C)[C@@H]5CC[C@]43C)[C@H]12 [Compound 20, 11-Ketocorosolamide] | > 100 | 142.81 ± 7.30 | 12.33 | 18.57 | 42.79 |
| C[C@H]1[C@H](C)CC[C@]2(C(N)=O)CC[C@]3(C)C(=CC(O)[C@@H]4[C@@]5(C)C[C@@H](O)[C@H](O)C(C)(C)[C@@H]5CC[C@]43C)[C@H]12 (stereo partly shown) [Compound 21, 11-Hydroxycorosolamide] | > 100 | 121.57 ± 2.62 | 25.37 | 25.57 | 50.83 |
| COC(=O)C12CCC(C)C(C)C1C1=CC(O)C3C4(C)CC(O)C(O)C(C)(C)C4CCC3(C)C1(C)CC2 (stereo not shown) [Compound 22, Methyl 11-hydroxycorosolate] | 19.9 | – | – | 24.56 | 49.40 |
| CC(Cc1ccc(O)c(O)c1)C(C)Cc1ccc(O)c(O)c1 (stereo not shown) [NDGA, Nordihydroguaiaretic acid, reference compound] | – | – | – | 70.4 | 91.55 |
| Methyl diacetyl-11-ketocorosolate [Compound 16] | 82.3 | – | – | – | 3.82 |
| Methyl diacetylcorosolate [Compound 14] | 42.1 | – | – | – | 1.9 |
